Test results reported in paper PMC4992173, “Divergent synthesis and identification of the cellular targets of deoxyelephantopins” (Nature Communications, 2016).

How the values were obtained:
[1] = target: T1, PPARγ (Homo sapiens, UniProt P37231); experiment: Gel-based screening for PPARγ binders using probe 24c-Cy3; assay type: binding; design: purchased Cayman Chemical; conditions: 20 μM, 1 h, then 10 μM 24c-Cy3; 19a named first, 28 second
T1 sequence (P37231 1-505): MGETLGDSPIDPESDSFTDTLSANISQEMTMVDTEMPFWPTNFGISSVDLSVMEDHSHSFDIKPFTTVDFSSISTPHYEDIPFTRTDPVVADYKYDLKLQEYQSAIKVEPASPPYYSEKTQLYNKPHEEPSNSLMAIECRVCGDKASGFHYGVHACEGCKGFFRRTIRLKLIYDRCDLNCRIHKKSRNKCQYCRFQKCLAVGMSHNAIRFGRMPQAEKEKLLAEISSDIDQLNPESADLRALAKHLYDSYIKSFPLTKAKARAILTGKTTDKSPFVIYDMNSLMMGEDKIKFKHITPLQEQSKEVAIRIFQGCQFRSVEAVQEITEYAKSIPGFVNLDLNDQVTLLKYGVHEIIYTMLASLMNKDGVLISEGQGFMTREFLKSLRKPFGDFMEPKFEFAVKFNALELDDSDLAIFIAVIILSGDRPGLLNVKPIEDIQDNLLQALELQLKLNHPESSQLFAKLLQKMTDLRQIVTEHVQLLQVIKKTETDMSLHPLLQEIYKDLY
Description: (c) Gel-based competitive screening of DEP and analogues as PPARγ antagonists against recombinant human enzyme (top). hPPARγ was treated with each compound (20 μM) for 1 h followed by treatment with 24c-Cy3 (10 μM) as probe. Quantification of fluorescence intensity in the competitive screening for PPARγ antagonists (bottom; values±s.d. are shown; n=3).
Briefly, recombinant human PPARγ was pretreated with compounds at 20 μM concentration followed by the probe 24c-Cy3.
Samples were then treated with 10 μM 24c-Cy3 (0.5 μl of 25 × stock in DMSO) for 1 h at room temperature in the dark. SDS–PAGE reducing loading buffer (4 ×) was added and proteins were separated using a 10% SDS–PAGE gel. Gels were visualized at 625 nm using a Hitachi FMBIO II Multi-View fluorescence scanner, then stained using silver staining. Images were quantified with ImageJ.

[2] = target: T2, Cystathionine beta-synthase (CBS) (Homo sapiens, UniProt P35520); experiment: In situ competitive profiling in live MCF7 cells (LFQ): CBS; assay type: cell-based; conditions: protein CBS, 4 h, then 10 µM 24c, n=4
T2 construct: endogenous in cells; host or cells: MCF7
Source text: (§1) In our efforts to determine the direct molecular targets of deoxyelephantopin we first performed a gel-based competitive in situ proteomic profiling assay[41] […] While the greater conformational flexibility of probe 24c could potentially lead to more promiscuous target engagement relatively to deoxyelephantopin, it was favoured based on the fact that an alkyne moiety appended to the rigid scaffold of deoxyelephantopin may hinder some of its interactions. MCF7 cells were pretreated with various concentrations of deoxyelephantopin for 4 h, harvested, lysed and the lysates were treated with the fluorogenic probe 24c-Cy3 (10 μM; Supplementary Fig. 10). […] Furthermore, cells were pretreated with 20 μM concentration of deoxyelephantopin or 24c and the proteomic profiles were compared (Fig. 6b, Supplementary Fig. 11). Multiple bands were detected that were equally competed by both DEP and 24c, thus again confirming that 24c can be used as an acceptable clickable analogue of deoxyelephantopin in pulldown assays. Having established the optimal labelling conditions by SDS–PAGE, we next carried out a mass spectrometry-based competitive profiling assay[42] coupled with the method of stable isotope labelling of amino acids in culture (SILAC)[43]. […]
(§2) Figure 6 Proteome-wide identification of deoxyelephantopin targets. […] Quantification was performed using label-free quantification (LFQ) method (n=4). […]

[3] = target: T3, Thioredoxin domain-containing protein 12 (TXNDC12) (Homo sapiens, UniProt O95881); experiment: In situ competitive profiling in live MCF7 cells (LFQ): TXNDC12; assay type: cell-based; conditions: 4 h, then 10 µM 24c, n=4
T3 construct: endogenous in cells; host or cells: MCF7
Source text: as §1, §2

[4] = target: T4, Protein transport protein Sec24C (SEC24C) (Homo sapiens, UniProt P53992); experiment: In situ competitive profiling in live MCF7 cells (LFQ): SEC24C; assay type: cell-based; conditions: 4 h, then 10 µM 24c, n=4
T4 construct: endogenous in cells; host or cells: MCF7
Source text: as §1, §2

[5] = system: several human cancer cell lines; conditions: cited from earlier work

T4 sequence (P53992 whole entry): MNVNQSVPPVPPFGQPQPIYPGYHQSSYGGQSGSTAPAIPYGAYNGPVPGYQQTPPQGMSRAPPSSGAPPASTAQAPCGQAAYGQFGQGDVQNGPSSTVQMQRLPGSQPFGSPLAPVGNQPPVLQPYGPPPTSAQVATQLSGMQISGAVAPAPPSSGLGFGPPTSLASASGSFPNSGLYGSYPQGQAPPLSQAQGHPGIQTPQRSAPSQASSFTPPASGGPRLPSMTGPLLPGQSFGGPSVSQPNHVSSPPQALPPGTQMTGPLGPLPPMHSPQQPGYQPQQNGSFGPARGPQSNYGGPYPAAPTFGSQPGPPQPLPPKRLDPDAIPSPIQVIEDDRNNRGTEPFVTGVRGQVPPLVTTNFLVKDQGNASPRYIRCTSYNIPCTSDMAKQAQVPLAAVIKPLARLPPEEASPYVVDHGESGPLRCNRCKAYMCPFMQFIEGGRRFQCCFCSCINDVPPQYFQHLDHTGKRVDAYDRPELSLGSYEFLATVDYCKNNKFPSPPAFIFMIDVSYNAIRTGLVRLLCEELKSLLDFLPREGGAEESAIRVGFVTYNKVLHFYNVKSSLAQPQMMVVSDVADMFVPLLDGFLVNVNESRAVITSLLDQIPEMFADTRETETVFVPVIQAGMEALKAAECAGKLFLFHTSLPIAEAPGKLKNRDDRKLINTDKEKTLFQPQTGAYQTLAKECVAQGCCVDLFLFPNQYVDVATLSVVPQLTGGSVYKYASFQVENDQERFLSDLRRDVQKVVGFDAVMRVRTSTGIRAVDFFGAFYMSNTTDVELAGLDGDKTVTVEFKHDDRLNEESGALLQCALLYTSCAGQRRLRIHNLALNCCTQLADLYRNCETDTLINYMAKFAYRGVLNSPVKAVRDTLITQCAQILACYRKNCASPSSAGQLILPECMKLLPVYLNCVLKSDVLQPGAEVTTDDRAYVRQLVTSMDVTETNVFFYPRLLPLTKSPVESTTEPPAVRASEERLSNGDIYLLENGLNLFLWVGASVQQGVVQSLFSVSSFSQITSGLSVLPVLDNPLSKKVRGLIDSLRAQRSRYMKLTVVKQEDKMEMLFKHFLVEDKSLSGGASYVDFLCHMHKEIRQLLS
T3 sequence (O95881 27-172): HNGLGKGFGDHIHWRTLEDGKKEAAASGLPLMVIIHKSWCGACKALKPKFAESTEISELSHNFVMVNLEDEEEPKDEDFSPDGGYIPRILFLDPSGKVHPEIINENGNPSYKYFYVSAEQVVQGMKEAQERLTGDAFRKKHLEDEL
T2 sequence (P35520 whole entry): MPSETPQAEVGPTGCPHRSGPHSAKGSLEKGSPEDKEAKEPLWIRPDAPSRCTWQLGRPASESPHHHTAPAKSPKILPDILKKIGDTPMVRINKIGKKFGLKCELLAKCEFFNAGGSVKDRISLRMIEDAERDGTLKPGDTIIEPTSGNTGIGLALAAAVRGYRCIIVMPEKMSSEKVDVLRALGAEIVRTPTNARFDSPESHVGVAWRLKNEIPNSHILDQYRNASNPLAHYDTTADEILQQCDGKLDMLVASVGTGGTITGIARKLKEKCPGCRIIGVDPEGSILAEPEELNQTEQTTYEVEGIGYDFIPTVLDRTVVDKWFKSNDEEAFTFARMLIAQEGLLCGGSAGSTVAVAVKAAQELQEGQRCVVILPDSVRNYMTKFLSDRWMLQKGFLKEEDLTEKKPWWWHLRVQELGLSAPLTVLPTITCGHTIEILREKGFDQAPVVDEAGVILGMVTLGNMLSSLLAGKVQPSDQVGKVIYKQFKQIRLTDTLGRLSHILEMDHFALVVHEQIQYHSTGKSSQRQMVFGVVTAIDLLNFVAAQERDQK

C=C(C)C(=O)O[C@H]1CC2=C[C@H](C/C=C\[C@H]3OC(=O)C(=C)[C@H]13)OC2=O [19a]
rank as covalent binder to PPARγ (competition of 24c-Cy3 labelling) [1]: most effective covalent binder

C=C(C)C(=O)O[C@H]1CC2=C[C@@H](C/C(C)=C/[C@H]3OC(=O)C(=C)[C@H]13)OC2=O [deoxyelephantopin]
LFQ ratio 20 µM Deoxyelephantopin/DMSO with 24c [2]: 0.00 | LFQ ratio 20 µM Deoxyelephantopin/DMSO with 24c [3]: 0.0425 | LFQ ratio 20 µM Deoxyelephantopin/DMSO with 24c [4]: 0.18 | cytotoxic doses [5]: 0.5 to 2 µg/mL
